“Also recorded” adds a separate entry of the source.
Tests used:
[1] = Observation of viability, side effects and body weight during treatment; conditions: overall sample of PDTC-treated mice
[2] = test system: nuclear p65 activation; experiment: TransAM NF-κB ELISA of nuclear p65 activation in mdx costal diaphragm; type: in vivo, mdx mice
Protocol: Cytosolic and nuclear fractions were obtained from isolated costal diaphragm using techniques that were slightly modified from Kumar and Boriek (2003). The muscles were removed from vehicle and drug-treated euthanized mdx mice at the end of the treatment period, and were flash-frozen and stored at −80° C. for a period of 1 to 4 weeks. The muscles were then thawed and weighed before being homogenized on ice using a mortar and pestle in low salt lysis (LSL) buffer (1 mg muscle wet weight/18 μl solution; in mM: 10 HEPES, 10 KCl, 1.5 MgCl2, 0.1 EDTA, 0.1 EGTA, 1 dithiothreitol (DTT), 0.5 phenylmethylsulfonylfluoride (PMSF); 0.5 mg/ml benzamidine, 4.0 μl/ml protease inhibitor cocktail Sigma #8340 (PIC) to produce the following final concentrations—2.1 μg/ml leupeptin, 3.85 μg/ml aprotinin, 0.416 mM AEBSF (Sigma A8456), 16 μM bestatin, 6 μM pepstatin A, 5.6 μM E64; pH 7.9). To lyse the cells, the ground tissue was then subjected to 2 freeze-thaw cycles (5 min freeze on dry ice followed by thawing at room temperature), and was subsequently vortexed and centrifuged (13,000 rpm, 15 s). The supernatant cytosolic extract was immediately frozen (−80° C.) for subsequent analyses as needed, while the nuclear pellet was washed in 50 μl LSL (2 times) before being re-suspended on ice in a high salt nuclear extraction buffer (in mM: 20 HEPES, 420 NaCl, 1 EDTA, 1 EGTA, 1 DTT, 0.5 PMSF; 25% glycerol, 0.5 mg/ml benzamidine, 4.0 μl/ml PIC; pH 7.9) at a ratio of 4 μl of solution per mg muscle wet weight. Preparations were incubated on ice for 30 min and vortexed for 10 s every 5 min before being centrifuged (13,000 rpm, 6 min) at 4° C. The supernatant nuclear extract was then removed and frozen (−80° C.) for subsequent analyses. Potential contamination of nuclear extracts with cytoplasmic proteins was less than 5%. Protein determinations for each fraction were obtained using the Bradford assay.
The Trans-Am assay (Active Motif; Carlsbad, Calif.) was used to determine nuclear NF-κB activation in nuclear fractions which were applied to the 96 well ELISA plates at 2-20 μg protein. The p65 primary antibody (catalogue number 40096) was used to detect p65 bound to oligonucleotide in vehicle and drug-treated preparations in accordance with kit instructions. A nuclear extract from Jurkat cells was routinely run as a positive control in association with each set of control and experimental samples.
Horizontal dashed lines indicate average levels observed in nondystrophic, vehicle, and UDCA treated preparations as indicated. In each case, percent recovery is determined by dividing the mean improvement observed in the UDCA treated preparation (UDCA-vehicle) from the deficit observed in the vehicle-treated preparation (nondystrophic-vehicle mdx). Mdx mice were treated for 30 days beginning at 1 month of age. Horizontal dashed lines in (A) and (B) representing nondystrophic values were obtained from a cohort of nondystrophic mice at 2 months of age. […] The results were obtained from two separate groups of vehicle and UDCA treated preparations that were assayed using two different 96 well plates. For each plate, the absorbance for each sample was normalized to the average absorbance determined for the vehicle-treated preparations on that plate. […] Millman et al., 2007. N is the number of mice and preparations in each condition. Shown are the means and standard errors. […] indicate p<0.05 and p<0.01, respectively, between vehicle and UDCA treated preparations. […]

[3] = test system: mdx triangularis sterni (TS) muscle; experiment: Histological cross sections of mdx TS muscle (fiber number, diameter, density, myonuclei, centronucleation); type: in vivo, mdx mice; conditions: 50 mg/kg daily 30 days from 30 days of age, read at 60 days; p<0.001

S=C(S)N1CCCC1 [PDTC, pyrrolidine dithiocarbamate]
effect on viability [1]: no obvious effect | reduction of nuclear p65 activation ([2]; mature adult mdx, PDTC 50 mg/kg/day ip 30 days, not significant, p=0.4, N=4 vehicle, N=3 PDTC): 23% | effect on nuclear p65 activation ([2]; young adult mdx, PDTC 60 days beginning at 30 days of age, N=5 per group): no effect | percent centronucleation [3]: reduced; also recorded: significantly reduces

Reference: patent publication US20100292306A1, “Compositions And Methods For The Treatment Of Muscular Dystrophy” (priority 2005, published 2010)
